Consider 27 compounds from patent US8551999B2, “Heterocyclic compound and pharmaceutical composition thereof” (Otsuka Pharmaceutical Co., Ltd., priority 2007, dated 2013).

Broadly, the melting point is the temperature of the solid-liquid transition.

`Cc1cc(C(F)(F)F)ccc1C(=O)Nc1ccc(Oc2ccc3cc(C(=O)N4CCN(Cc5ccc(OC(F)F)cc5)CC4)n(C)c3c2)nc1.Cl` displayed a melting point of 204.9 to 205.7 °C.
With `Br.CCCOc1ccc(CN2CCN(C(=O)c3cc4ccc(Oc5ccc(N(C)C(=O)c6ccc(OC(F)(F)F)cc6)cn5)cc4n3C)CC2)cc1` [Example 471, N-Methyl-N-(6-{1-methyl-2-[4-(4-propoxybenzyl)piperazine-1-carbonyl]-1H-indol-6-yloxy}pyridin-3-yl)-4-trifluoromethoxy-benzamide hydrobromide] the figure was 240 to 242 °C; with `Br.Cn1c(C(=O)N2CCN(Cc3ccc(OC(F)F)cc3)CC2)cc2cc(Oc3ccc(NC(=O)c4ccc(C(F)(F)F)cc4)cn3)ccc21` [Example 400, N-(6-{2-[4-(4-Difluoromethoxybenzyl)piperazine-1-carbonyl]-1-methyl-1H-indol-5-yloxy}pyridin-3-yl)-4-trifluoromethylbenzamide hydrobromide], 229 to 231 °C.
Consider `CCCCS(=O)(=O)N(C)c1ccc(Oc2ccc3cc(C(=O)N4CCN(Cc5ccc(OCC(F)(F)F)cc5)CC4)n(C)c3c2)nc1.Cl`, for which the melting point was in the range of 253.6 to 254.4 °C.
With `CN(C(=O)c1ccc(C(F)(F)F)cc1)c1ccc(Oc2ccc3c(c2)cc(C(=O)N2CCN(Cc4ccccn4)CC2)n3C)nc1.O=C(O)C(=O)O.O=C(O)C(=O)O` [Example 561, N-Methyl-N-{6-[1-methyl-2-(4-pyridin-2-ylmethylpiperazine-1-carbonyl)-1H-indol-5-yloxy]pyridin-3-yl}-4-trifluoromethyl-benzamide dioxalate] the figure was 114 to 117 °C; with `Br.COc1ccc(CN2CCN(C(=O)c3cc4cc(Oc5ccc(N(C)C(=O)c6ccc(C(F)(F)F)c(C)c6)cn5)ccc4n3C)CC2)cc1` [Example 20, N-(6-{2-[4-(4-Methoxybenzyl)piperazine-1-carbonyl]-1-methyl-1H-indol-5-yloxy}pyridin-3-yl)-3,N-dimethyl-4-trifluoromethyl-benzamide hydrobromide], 199 to 202 °C.
As to `Br.CC(C)Oc1ccc(CN2CCN(C(=O)c3cc4cc(Oc5ccc(NC(=O)c6ccc(C(F)(F)F)cc6)cn5)ccc4n3C)CC2)cc1` [Example 460, N-(6-{2-[4-(4-Isopropoxybenzyl)piperazine-1-carbonyl]-1-methyl-1H-indol-5-yloxy}pyridin-3-yl)-4-trifluoromethylbenzamide hydrobromide], the melting point was 236.8 to 243.8 °C.
Turning to `COc1ccc(CN2CCN(C(=O)c3cc4c(C)c(Oc5ccc(NC(=O)c6ccc(C(F)(F)F)cc6)cn5)ccc4n3C)CC2)cc1` [Example 235, N-(6-{2-[4-(4-Methoxybenzyl)piperazine-1-carbonyl]-1,4-dimethyl-1H-indol-5-yloxy}pyridin-3-yl)-4-trifluoromethylbenzamide], the melting point lay within 219 to 221 °C.
With `Br.CCOc1ccc(CN2CCN(C(=O)c3cc4ccc(Oc5ccc(N(C)C(=O)c6ccc(C(F)(F)F)cc6)cn5)cc4n3C)CC2)cc1` [Example 419, N-(6-{2-[4-(4-Ethoxybenzyl)piperazine-1-carbonyl]-1-methyl-1H-indol-6-yloxy}pyridin-3-yl)-N-methyl-4-trifluoromethylbenzamide hydrobromide] the figure was 241 to 243 °C; with `CN(c1ccc(Oc2ccc3cc(C(=O)N4CCN(Cc5ccc(OCC6CC6)cc5)CC4)n(C)c3c2)nc1)S(=O)(=O)c1ccc(Cl)c(Cl)c1` [Example 514, 3,4-Dichloro-N-(6-{2-[4-(4-cyclopropylmethoxybenzyl)piperazine-1-carbonyl]-1-methyl-1H-indol-6-yloxy}pyridin-3-yl)-N-methyl-benzenesulfonamide], 194.1 to 195.8 °C.
`Br.CC(C)CN1CCN(C(=O)c2cc3cc(Oc4ccc(NC(=O)c5ccc(Cl)c(Cl)c5)cn4)ccc3n2C)CC1` [Example 567, 3,4-Dichloro-N-{6-[2-(4-isobutylpiperazine-1-carbonyl)-1-methyl-1H-indol-5-yloxy]pyridin-3-yl}benzamide hydrobromide] came in with a melting point of 251 to 254 °C.
Turning to `Cl.Cn1c(C(=O)N2CCN(Cc3ccc(OCC(F)(F)F)cc3)CC2)cc2ccc(Oc3ncc(NC(=O)c4ccc(C(F)(F)F)cc4)cn3)cc21`, the melting point lay in the range of 250.8 to 254.2 °C.
As for `CN(c1ccc(Oc2ccc3cc(C(=O)N4CCN(Cc5ccc(OCC(F)(F)F)cc5)CC4)n(C)c3c2)nc1)S(=O)(=O)c1ccc(Cl)c(Cl)c1` [Example 68, 3,4-Dichloro-N-methyl-N-[6-(1-methyl-2-{4-[4-(2,2,2-trifluoro-ethoxy)benzyl]piperazine-1-carbonyl}-1H-indol-6-yloxy)pyridin-3-yl]benzenesulfonamide], the figure is 165.9 to 167.2 °C; as for `CCCOc1ccc(CN2CCN(C(=O)c3cc4ccc(Oc5ccc(N(C)S(=O)(=O)c6ccc(Cl)c(Cl)c6)cn5)cc4n3C)CC2)cc1` [Example 33, 3,4-Dichloro-N-methyl-N-(6-{1-methyl-2-[4-(4-propoxybenzyl)-piperazine-1-carbonyl]-1H-indol-6-yloxy}pyridin-3-yl)-benzenesulfonamide], 231.7 to 235 °C (dec.).
As for `Br.CN(C(=O)c1ccc(C(F)(F)F)cc1)c1ccc(Oc2ccc3cc(C(=O)N4CCN(Cc5ccc(OC(F)F)cc5)CC4)n(C)c3c2)nc1` [Example 422, N-(6-{2-[4-(4-Difluoromethoxybenzyl)piperazine-1-carbonyl]-1-methyl-1H-indol-6-yloxy}pyridin-3-yl)-N-methyl-4-trifluoromethyl-benzamide hydrobromide], the figure is 229 to 230 °C; as for `CN(c1ccc(Oc2ccc3cc(C(=O)N4CCN(Cc5ccc(OC(F)F)cc5)CC4)n(C)c3c2)nc1)S(=O)(=O)c1ccc(Cl)c(Cl)c1` [Example 515, 3,4-Dichloro-N-(6-{2-[4-(4-difluoromethoxybenzyl)piperazine-1-carbonyl]-1-methyl-1H-indol-6-yloxy}pyridin-3-yl)-N-methyl-benzenesulfonamide], 143.4 to 147.2 °C; as for `Br.CN(C(=O)c1ccc(Cl)c(Cl)c1)c1ccc(Oc2ccc3c(c2)cc(C(=O)N2CCN(Cc4ccc5c(c4)OCO5)CC2)n3C)nc1` [Example 6, N-{6-[2-(4-Benzo[1,3]dioxol-5-ylmethylpiperazine-1-carbonyl)-1-methyl-1H-indol-5-yloxy]pyridin-3-yl}-3,4-dichloro-N-methyl-benzamide hydrobromide], 222 to 226 °C.
With `COc1ccccc1CN1CCN(C(=O)c2cc3cc(Oc4ccc(NC(=O)c5ccc(C(F)(F)F)cc5)cn4)ccc3n2C)CC1.O=C(O)C(=O)O` [Example 354, N-(6-{2-[4-(2-Methoxybenzyl)piperazine-1-carbonyl]-1-methyl-1H-indol-5-yloxy}pyridin-3-yl)-4-trifluoromethylbenzamide oxalate] the figure was 142 to 144 °C; with `CCN(C(=S)Nc1ccc(Cl)c(Cl)c1)c1ccc(Oc2ccc3c(c2)cc(C(=O)N2CCN(Cc4ccc5c(c4)OCO5)CC2)n3C)nc1.Cl`, 152 to 160 °C; with `CN(c1ccc(Oc2ccc3cc(C(=O)N4CCN(Cc5ccc(OCC(F)(F)F)cc5)CC4)[nH]c3c2)nc1)S(C)(=O)=O` [Example 285, N-Methyl-N-[6-(2-{4-[4-(2,2,2-trifluoroethoxy)benzyl]piperazine-1-carbonyl}-1H-indol-6-yloxy)pyridin-3-yl]methanesulfonamide], 167 to 168.1 °C.
`CCCOc1ccc(CN2CCN(C(=O)c3cc4ccc(Oc5ccc(N(C)C(=O)c6ccc(C(F)(F)F)cc6F)cn5)cc4n3C)CC2)cc1.Cl` yielded a melting point of 247.1 to 249.2 °C.
Regarding `Cc1ccc(S(=O)(=O)N(C)c2ccc(Oc3ccc4cc(C(=O)N5CCN(Cc6ccc(OCC7CC7)cc6)CC5)n(C)c4c3)nc2)cc1` [Example 530, N-(6-{2-[4-(4-Cyclopropylmethoxybenzyl)piperazine-1-carbonyl]-1-methyl-1H-indol-6-yloxy}pyridin-3-yl)-4,N-dimethylbenzene-sulfonamide], the melting point was 135.6 to 138.6 °C.
As for `CCOc1ccc(CN2CCN(C(=O)c3cc4cc(Oc5ccc(N(C)C(=O)c6ccc(Cl)c(Cl)c6)c(C)n5)ccc4n3C)CC2)cc1.O=C(O)/C=C\C(=O)O` [Example 372, 3,4-Dichloro-N-(6-{2-[4-(4-ethoxybenzyl)piperazine-1-carbonyl]-1-methyl-1H-indol-5-yloxy}-2-methylpyridin-3-yl)-N-methylbenzamide maleate], the melting point was 131 to 132 °C.
Compound `Cc1ccc(S(=O)(=O)N(C)c2cnc(Oc3ccc4cc(C(=O)N5CCN(Cc6ccc(OC(C)C)cc6)CC5)n(C)c4c3)nc2)cc1` [Example 44, N-(2-{2-[4-(4-Isopropoxybenzyl)piperazine-1-carbonyl]-1-methyl-1H-indol-6-yloxy}pyrimidin-5-yl)-4,N-dimethylbenzenesulfonamide] yielded a melting point of 154.3 to 155.1 °C.
Compound `Cc1ccc(S(=O)(=O)N(C)c2ccc(Oc3ccc4cc(C(=O)N5CCN(Cc6ccc(OC(CF)CF)cc6)CC5)n(C)c4c3)nc2)cc1` [Example 523, N-[6-(2-{4-[4-(2-Fluoro-1-fluoromethylethoxy)benzyl]piperazine-1-carbonyl}-1-methyl-1H-indol-6-yloxy)pyridin-3-yl]-4,N-dimethyl-benzenesulfonamide] registered a melting point of 116.5 to 116.6 °C.
With `Cc1nc(Oc2ccc3c(c2)cc(C(=O)N2CCN(Cc4ccncc4)CC2)n3C)ccc1N(C)C(=O)c1ccc(C(F)(F)F)cc1.O=C(O)C(=O)O.O=C(O)C(=O)O` [Example 566, N-Methyl-N-{2-methyl-6-[1-methyl-2-(4-pyridin-4-ylmethyl-piperazine-1-carbonyl)-1H-indol-5-yloxy]pyridin-3-yl}-4-tri-fluoromethylbenzamide dioxalate], the melting point lay within 117 to 120 °C.
As for `Cn1c(C(=O)N2CCN(C(=O)c3ccccn3)CC2)cc2cc(Oc3ccc(NC(=O)c4ccc(C(F)(F)F)cc4)cn3)ccc21` [Example 239, N-(6-{1-Methyl-2-[4-(pyridine-2-carbonyl)piperazine-1-carbonyl]-1H-indol-5-yloxy}pyridin-3-yl)-4-trifluoromethylbenzamide], the figure is 162 to 164 °C.
